Patent US20100075907A1, “NEUROMEDIN U RECEPTOR AGONISTS AND USES THEREOF” (priority 2006, published 2010)
pEC50, pIC50: −log10 of the molar value. Non-standard residues stand in square brackets, D forms with d. Residues, ends and D or L forms follow the SMILES beside them. *: point of attachment. Succinimide(1-Et,3-yl) = CCN1C(=O)CC(*)C1=O

Assays:
[1] = biological target: T1, hNMUR1 (Homo sapiens, UniProt Q9HB89); test: 125I-hNMU-25 binding assay, human NMUR1 membranes; set-up: expressed in transfected cells; host or cells: HEK-293 FLP-In cells (pcDNA5); HEK-293/aeq17 lines (pIRES-puro) were also made; % inhibition of NMU-25 binding / % Activity: concentration or dose not given beside the values; conditions: for pIC50: binding; for pIC50 / % inhibition of NMU-25 binding: human R1
T1 sequence (Q9HB89 1-426): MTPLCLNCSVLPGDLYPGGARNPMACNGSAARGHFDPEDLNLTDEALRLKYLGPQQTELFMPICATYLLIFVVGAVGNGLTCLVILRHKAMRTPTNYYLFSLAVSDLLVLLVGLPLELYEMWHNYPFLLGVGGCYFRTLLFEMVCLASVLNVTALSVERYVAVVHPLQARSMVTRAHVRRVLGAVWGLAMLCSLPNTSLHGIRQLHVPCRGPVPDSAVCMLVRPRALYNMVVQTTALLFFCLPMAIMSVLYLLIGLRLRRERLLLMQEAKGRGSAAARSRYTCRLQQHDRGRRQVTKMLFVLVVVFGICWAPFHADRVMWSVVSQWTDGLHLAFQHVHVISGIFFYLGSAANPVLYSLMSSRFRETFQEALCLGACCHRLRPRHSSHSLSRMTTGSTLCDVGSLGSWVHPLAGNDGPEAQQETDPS
Protocol: (§1) Confluent cell monolayers expressing NMU receptors (the HEK cells described above) were harvested with phosphate buffered saline, collected by centrifugation, and resuspended in membrane buffer (50 mM TrisCl pH 7.4, 5 mM MgCl2, 1× Protease Inhibitor Cocktail, 10 μM phosphoramidon). After the cell pellet was homogenized, the solution was centrifuged at 18,000 rpm for 20 minutes at 4° C. The pellet was resuspended in membrane buffer to yield a final concentration of 0.5-5 μg/μL of membrane and stored at −80° C.
(§2) Experiments were performed in assay buffer (25 mM TrisCl, pH 7.4, 10 mM MgCl2, 2 mM EDTA, 1× Protease Inhibitor Cocktail, 100 μg/mL Bacitricin, 10 μM phosphoramidon) in 200 μL volumes in a 96-well format using 2-5 μg of membrane and 0.1 nM ^125I-hNMU-25 (about 12,000 cpm/well). For non-specific binding, 1 μM hNMU-25 was added. About 5 μL of peptides were added to measure antagonist activity, and the entire reaction was incubated at room temperature with shaking for 80 minutes. The reaction was terminated by rapid filtration through 0.3% poly-ethylenimine presoaked Millipore 96-well filter plates and washed with ice-cold buffer (5 mM TrisCl pH 7.4, 10 mM MgCl2, 2.5 mM EDTA, 0.04% Triton X-100). Plates were air-dried overnight at room temperature and recovered radioactivity was determined by standard scintillation counting. IC50 values were determined using GraphPad Prism software.
(§3) Concentration-response curves and radioligand-binding data were fitted using Prism (GraphPad Software). Results are summarized below in Tables 8 and 9.

[2] = biological target: hNMUR2 (Homo sapiens, UniProt Q9GZQ4); test: 125I-hNMU-25 binding assay, human NMUR2 membranes; set-up: expressed in transfected cells; host or cells: HEK-293 FLP-In cells (pcDNA5); HEK-293/aeq17 lines (pcDNA3.1) were also made; % inhibition of NMU-25 binding / % Activity: concentration or dose not given beside the values; conditions: for pIC50: binding; for pIC50 / % inhibition of NMU-25 binding: human R2
Protocol: as §1, §2, §3

[3] = biological target: mouse NMUR2 (Mus musculus, UniProt Q8BZ39); test: FLIPR calcium mobilization assay, mouse NMUR2; format: cell-based; set-up: expressed in transfected cells; host or cells: FLP-In CHO or HEK-293 FLP-In cells (pcDNA5); conditions: for pIC50: functional data, mouse R2
Source text: Human, mouse or rat cDNAs encoding NMUR1 or NMUR2 (as described in Howard et al. Nature 406: 70-74 (2000) were subcloned in pcDNA5 (Invitrogen) and transfected into FLP-In CHO cells and HEK-293 FLP-In cells purchased from Invitrogen (Carlsbad, Calif.) using lipofectamine (Invitrogen). The Flp-In system allows integration and expression of a particular gene of interest at a specific genomic location utilizing the Flp recombinase from yeast. The transfected cells were selected by growth in medium containing 200 μg/mL hygromycin (Invitrogen). Populations were frozen at early passage numbers, and these stocks were used for further studies. Stable clones that expressed the mRNAs were identified functionally by FLIPR as well as by RT-PCR. […] Two different rodent NMUR1 cell lines were thus generated: one with the codon as predicted from the genomic databases and another cell line with an engineered methionine (ATG) as the start codon. Additionally, stable cell lines expressing the human receptors were generated in HEK-293/aeq17 cells which stably express the aequorin gene under the CMV promoter. The human NMUR2 cDNA was cloned into pcDNA3.1 and human NMUR1 was subcloned into pIRES-puro (Clontech, Mountain View, Calif.), after transfection cells were selected in media containing G418 and either hygromycin (NMUR2) or puromycin (NMUR1).
The NMU receptors signal primarily through Gαq/11 proteins; therefore calcium mobilization assays can be utilized for functional activity.
Stable cell lines expressing human and or rodent NMUR1 or human NMUR2 receptors were plated at a density of 12,000 cells per well overnight on poly-lysine coated 384-well black-walled plates. The following day, the media was removed from the plates and the cells were subsequently loaded with Fluo-3 (Molecular Probes), a calcium sensitive dye, diluted in FLIPR buffer (1× Hank's buffered saline containing 20 mM HEPES, 0.1% BSA, 2.5 mM probenecid (Sigma) and 1.6 mM TR40). All reagents are from Invitrogen unless otherwise noted. Peptide stocks were resuspended in DMSO at a stock concentration of 2 mM and diluted in FLIPR buffer on the day of the experiment to a 4 μM working stock solution.
After a 90 minute incubation at room-temperature, cell plates were loaded onto a FLIPR (Molecular Devices) to monitor cellular fluorescence (excitation=488 nm; emission=540 nm) before and after compound/peptide addition. Eight to twelve point dose responses were tested on NMUR-expressing cell lines using FLIPR with 1 μM peptide as the highest dose. The response after peptide addition was taken as the maximum fluorescence units minus the fluorescence immediately prior to stimulation for each well. EC50 values were calculated using GraphPad Prism (San Diego, Calif.) software.
In vitro responses of Neuromedin U receptor agonists (NMU1 to NMU25) in the FLIPR assay for human (Table 3), mouse (Table 4) and rat (Table 5) NMUR1 and NMUR2. EC50s are reported in nM values. Percent activity refers to the maximum response at 1 μM compared to the hNMU-25 response at the same concentration. NT=not tested.

[4] = functional, mouse R2, relative to native hNMU responses

Chain of hNMUR2 (Q9GZQ4 whole entry): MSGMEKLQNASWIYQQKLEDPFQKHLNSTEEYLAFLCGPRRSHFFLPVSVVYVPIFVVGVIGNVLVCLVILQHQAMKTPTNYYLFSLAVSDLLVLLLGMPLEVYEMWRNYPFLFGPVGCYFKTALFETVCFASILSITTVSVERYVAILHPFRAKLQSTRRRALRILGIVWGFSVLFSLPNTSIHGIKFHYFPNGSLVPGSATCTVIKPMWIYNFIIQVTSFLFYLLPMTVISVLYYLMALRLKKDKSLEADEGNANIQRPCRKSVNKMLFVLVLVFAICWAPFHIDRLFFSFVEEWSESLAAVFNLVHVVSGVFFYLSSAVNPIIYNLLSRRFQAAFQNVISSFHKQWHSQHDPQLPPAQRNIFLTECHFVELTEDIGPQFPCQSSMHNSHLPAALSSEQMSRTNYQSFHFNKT
Chain of mouse NMUR2 (Q8BZ39 whole entry): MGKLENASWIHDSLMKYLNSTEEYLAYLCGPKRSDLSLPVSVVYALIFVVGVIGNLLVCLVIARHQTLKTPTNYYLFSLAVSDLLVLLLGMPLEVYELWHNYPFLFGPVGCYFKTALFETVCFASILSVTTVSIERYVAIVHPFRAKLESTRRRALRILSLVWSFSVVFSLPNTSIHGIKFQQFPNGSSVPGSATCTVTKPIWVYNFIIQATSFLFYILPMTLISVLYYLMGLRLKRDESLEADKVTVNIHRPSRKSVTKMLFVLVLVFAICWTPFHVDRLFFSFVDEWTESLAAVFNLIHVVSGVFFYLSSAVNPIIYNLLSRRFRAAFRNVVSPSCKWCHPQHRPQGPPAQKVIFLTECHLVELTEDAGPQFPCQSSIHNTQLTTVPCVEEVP

Row | Molecule | % Activity ([1]; Table 8, HEK-hR1, binding) | pIC50 [1] | % inhibition of NMU-25 binding [1] | % Activity ([2]; Table 8, HEK-hR2, binding) | pIC50 [2] | % inhibition of NMU-25 binding [2] | pIC50 [3] | % Activity [3, 4] | pEC50 ([3]; FLIPR, mouse NMUR2) | % Activity ([3]; maximum response at 1 μM compared to hNMU-25, mouse NMUR2) | % Activity ([1]; Table 9, HEK-hR1, binding) | % Activity ([2]; Table 9, HEK-hR2, binding)
1 | CC(C)C[C@@H](NC(=O)[C@H](Cc1ccccc1)NC(=O)[C@H](Cc1ccc(O)cc1)NC(=O)CNC(=O)[C@H](CCCNC(=N)N)NC(=O)[C@H](CO)NC(=O)[C@H](CCC(N)=O)NC(=O)[C@H](CO)NC(=O)[C@H](C)NC(=O)[C@H](Cc1ccccc1)NC(=O)[C@@H]1CCCN1C(=O)[C@H](CO)NC(=O)[C@H](CCC(N)=O)NC(=O)[C@H](Cc1ccccc1)NC(=O)[C@H](CCC(=O)O)NC(=O)[C@H](CCC(=O)O)NC(=O)[C@H](CC(=O)O)NC(=O)[C@@H](NC(=O)[C@H](CCCNC(=N)N)NC(=O)[C@@H](N)Cc1ccccc1)C(C)C)C(=O)N[C@@H](Cc1c[nH]c2ccccc12)C(=O)N[C@@H](CCCNC(=N)N)C(=O)N1CCC[C@H]1C(=O)N[C@@H](CCCNC(=N)N)C(=O)N[C@@H](CC(N)=O)C(N)=O [Agonist H] (H-FRVDEEFQSPFASQSRGYF[dL]WRPRN-NH2; N-terminus assumed) | 93% | 8.96 | 93% | 7% | 6.11 | 7% | < 6.00 | 40% |  |  |  | 
2 | CCN1C(=O)CC(SC[C@H](NC(C)=O)C(=O)N[C@@H](Cc2ccccc2)C(=O)N[C@@H](CCCNC(=N)N)C(=O)N[C@H](C(=O)N[C@@H](CC(=O)O)C(=O)N[C@@H](CCC(=O)O)C(=O)N[C@@H](CCC(=O)O)C(=O)N[C@@H](Cc2ccccc2)C(=O)N[C@@H](CCC(N)=O)C(=O)N[C@@H](CO)C(=O)N2CCC[C@H]2C(=O)N[C@@H](Cc2ccccc2)C(=O)N[C@@H](C)C(=O)N[C@@H](CO)C(=O)N[C@@H](CCC(N)=O)C(=O)N[C@@H](CO)C(=O)N[C@@H](CCCNC(=N)N)C(=O)NCC(=O)N[C@@H](Cc2ccc(O)cc2)C(=O)N[C@@H](Cc2ccccc2)C(=O)N[C@H](C)C(=O)N[C@@H](Cc2c[nH]c3ccccc23)C(=O)N[C@@H](CCCNC(=N)N)C(=O)N2CCC[C@H]2C(=O)N[C@@H](CCCNC(=N)N)C(=O)N[C@@H](CC(N)=O)C(N)=O)C(C)C)C1=O (some centres unmarked) [NMU13] (Ac-C(Succinimide(1-Et,3-yl))FRVDEEFQSPFASQSRGYF[dA]WRPRN-NH2) |  |  | 100% |  | < 6.00 | 48% | < 6.00 | 27% | < 6.00 | 0.0% |  | 
3 | H-FRVDEEFQSPFASQSRGYFLFRPRN-NH2 [hNMU-25, reference compound] |  | 9.85 |  |  | 10.25 |  | 9.70 |  |  |  | 100% | 100%
